Changes are numbered by the printed parent chain.
Legend:
[1] = biological target: T1, androgen receptor (AR) and RNA polymerase II (Pol II) (Homo sapiens, UniProt P10275, T878A); details: 10 uM, 6 hours, LNCaP
T1 sequence (P10275 1-920 T878A): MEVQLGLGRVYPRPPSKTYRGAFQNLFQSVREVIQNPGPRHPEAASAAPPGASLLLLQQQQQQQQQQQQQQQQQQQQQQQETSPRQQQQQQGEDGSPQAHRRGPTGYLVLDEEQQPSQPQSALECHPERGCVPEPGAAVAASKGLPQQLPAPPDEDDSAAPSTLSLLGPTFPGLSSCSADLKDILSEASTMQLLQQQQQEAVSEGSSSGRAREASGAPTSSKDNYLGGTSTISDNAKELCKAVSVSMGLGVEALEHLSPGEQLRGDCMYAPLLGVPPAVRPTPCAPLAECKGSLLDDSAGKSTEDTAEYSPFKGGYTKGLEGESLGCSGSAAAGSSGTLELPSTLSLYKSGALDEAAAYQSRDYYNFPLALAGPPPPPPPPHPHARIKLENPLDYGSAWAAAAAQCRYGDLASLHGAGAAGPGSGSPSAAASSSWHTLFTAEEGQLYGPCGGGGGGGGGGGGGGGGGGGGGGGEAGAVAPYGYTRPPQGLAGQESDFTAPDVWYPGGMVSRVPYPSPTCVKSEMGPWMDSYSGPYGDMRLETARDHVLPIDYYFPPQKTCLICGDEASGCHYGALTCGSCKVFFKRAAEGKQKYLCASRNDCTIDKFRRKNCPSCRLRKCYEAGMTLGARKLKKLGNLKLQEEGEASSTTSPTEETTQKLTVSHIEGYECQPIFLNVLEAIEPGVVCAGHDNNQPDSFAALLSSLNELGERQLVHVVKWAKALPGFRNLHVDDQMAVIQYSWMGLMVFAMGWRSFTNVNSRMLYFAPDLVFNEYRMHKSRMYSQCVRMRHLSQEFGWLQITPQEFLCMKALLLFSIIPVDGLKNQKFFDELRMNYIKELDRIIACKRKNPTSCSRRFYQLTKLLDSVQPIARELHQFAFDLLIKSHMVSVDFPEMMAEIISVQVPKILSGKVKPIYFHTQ
Protocol: LNCaP (ATCC) cells were plated in full serum. On the day of the experiment, the plate was washed once with 1×PBS and 5% CSS was added for 3 days. […] Each of these compounds was added for 6 hours. In a fourth set of experiments, a control, no additional compound was added (−). 6 hours timepoint was run at 28 cycles.

tumor = experiment: Dose regimens of NC53 on tumor volume and luciferase photon emission (FIGS. 17, 18); format: in vivo; details: for tumor size: FIG. 17
Description: FIG. 17 illustrates that under treatment with vehicle solution, tumors continued to increase in size.

AR = biological target: T2, AR (Homo sapiens, UniProt P10275); format: cell-based; design: Fold induction, AR response reporter
T2 sequence (P10275 1-920): T1 sequence (P10275 1-920 T878A) with A878T
Protocol: It is well established that PSA levels are indicators of AR activities in prostate cancer. […] The LNCaP-AR cells are a line of lymph node carcinoma of prostate cells transduced with a plasmid that makes express androgen receptors. […] After four days incubation, secreted PSA levels were assayed using PSA ELISA kits (American Qualex, San Clemente, Calif.)

[2] = test system: LNCaP hormone sensitive xenograft; experiment: LNCaP hormone sensitive xenograft model
Protocol: Each set included 6 mice. The mice were treated with 10 mg/kg per day.

LIAR cell line = experiment: Luciferase activity of the LIAR cell line (FIG. 25); format: cell-based; details: 125 nmol to 1000 nmol
Description: FIG. 25 is a graph of luciferase activity of the LIAR cell line dosed with various compounds administered at concentrations ranging from 125 nmol to 1000 nmol.
The inventors have determined that what might appear to be a small change in the structure of hydantoin compounds may result in a large change in that compound's performance in treating prostate cancer.

urogenital tract = experiment: Luciferase transgenic mice with testosterone pellet, urogenital tract weight and photon emission (FIG. 22); format: in vivo; details: castrated mice with testosterone pellet, 10 mg/kg per day, 14 days
Protocol: FIG. 22 presents results of an experiment conducted with wild type nontransgenic mice (WT), castrated luciferase transgenic mice (Cast), and non-castrated luciferase transgenic mice (Intact). Data are shown for castrated luciferase transgenic mice treated with an implanted testosterone pellet yielding 12.5 mg per kilogram body weight with a 90 day release period (T/Cast), and data are shown for non-castrated luciferase transgenic mice treated with an implanted testosterone pellet yielding 12.5 mg per kilogram body weight with a 90 day release period (Intact+T). […]. (A) Urogenital tract weight at 14 days. (B) Photon emission rate at 14 days. In all cases, a hormone refractory disease state was not induced.
[…]. Moreover, the higher the dose, the lower the PSA level. […]. The weight and rate of photon emission increased for both intact and castrated mice.

SMILES: CNC(=O)c1ccc(N2C(=S)N(c3ccc(C#N)c(C(F)(F)F)c3)C(=O)C23CCC3)cc1F [NC53, N-methyl-4-[7-(4-cyano-3-trifluoromethylphenyl)-8-oxo-6-thioxo-5,7-diaza-spiro[3.4]oct-5-yl]-2-fluorobenzamide]
- AR and Pol II recruitment to PSA enhancer and PSA promoter [1]: prevented androgen receptor (AR) recruitment and RNA polymerase II (Pol II) recruitment to PSA enhancer and to PSA promoter
- tumor size (tumor; 1 mg per kg body weight per day): the rate of tumor increase decreased, and the size of the tumor appeared to be stabilizing after about 17 days
- tumor size (tumor; 10 mg per kg body weight per day): tumor size decreased with time
- photon emission associated with luciferase activity (tumor; 10 mg per kg body weight per day, day 17 vs day 0, FIG. 18): photon emission associated with luciferase activity decreased
- PSA levels of LN-AR cells (AR; 100, 200, 500, and 1000 nM, FIG. 20): PSA levels of LN-AR cells decreased
- PSA levels (AR; LN-AR cells, FIG. 23): PSA levels decreased
- rate of tumor growth (tumor volume) ([2]; 10 mg/kg per day, FIG. 6): slower than mice treated with vehicle solution
- PSA levels ([2]; FIG. 16, relative to vehicle solution): PSA levels decreased
- luciferase activity (comparison) (LIAR cell line): less than the luciferase activity upon exposure to NC98
- urogenital tract weight and photon emission (urogenital tract): decrease in weight and photon emission
